The nature of this data set: photoluminescence quantum yield (fraction); solvent given as SMILES.

Data on 46 compounds can be found in the Deep4Chem optical property database.

Molecules are shown by their SMILES.

Compound `COCCOCCOCCOc1cc(C=O)c(OCCOCCOCCOC)cc1C=O` had a photoluminescence quantum yield (in CC(C)(C)O) of 0.12; a photoluminescence quantum yield (in CC(C)CO) of 0.12; a photoluminescence quantum yield (in CC(C)O) of 0.11; a photoluminescence quantum yield (in CCCCO) of 0.13; a photoluminescence quantum yield (in CCCO) of 0.16; a photoluminescence quantum yield (in CCO) of 0.19. For the same compound, the photoluminescence quantum yield by setting is: (in CN(C)C=O) 0.04; (in CNC=O) 0.08; (in CO) 0.23; (in NC=O) 0.31; (in O) 0.54.
For the compound `COC(=O)c1cc(=O)n(C)c2cc(-c3ccc(OC)cc3)sc12`, the photoluminescence quantum yield was determined as 0.99 (in C1CCOC1); 0.77 (in CC#N); 0.99 (in CCO); 0.99 (in CN(C)C=O); 0.99 (in CO); 0.99 (in CS(C)=O). The photoluminescence quantum yield runs as follows: (in Cc1ccccc1) 0.98; (in ClC(Cl)Cl) 0.95; (in ClCCl) 0.9.
Turning to `c1ccc(-c2nc3sc4cc5c(cc4c3s2)OCO5)cc1`, for the setting “in CS(C)=O”, the photoluminescence quantum yield amounted to 0.62.
With `c1cc2ccc1CCCc1ccc(c3nsnc13)CCC2`, the photoluminescence quantum yield by setting is: (in C1CCCCC1) 0.51; (in CC#N) 0.19; (in ClC(Cl)Cl) 0.49.
For `CC(C)(C)c1ccc(-c2nc3ccccc3nc2-c2cc(-c3nc4ccccc4nc3-c3ccc(C(C)(C)C)cc3)cc(-n3c4ccccc4c4ccccc43)c2)cc1`, the photoluminescence quantum yield (in Cc1ccccc1) was 0.35.
For `c1ccc2c(c1)Oc1ccccc1N2c1ccc(-c2nnc(-c3ccc(N4c5ccccc5Oc5ccccc54)cc3)o2)cc1`, the photoluminescence quantum yield is, setting by setting: (in Cc1ccccc1) 0.431; (in O=P(c1ccccc1)(c1ccccc1)c1ccccc1Oc1ccccc1P(=O)(c1ccccc1)c1ccccc1) 0.87.
As to `CCN(CC)/C(C)=N\c1ccc2c3c(cccc13)C(=O)c1ccccc1-2`, the photoluminescence quantum yield by setting is: (in C1CCOC1) 0.17; (in CCCCCC) 0.21; (in CCO) 0.14; (in CCOC(C)=O) 0.22; (in CN(C)C=O) 0.15; (in CO) 0.14. Also, the photoluminescence quantum yield reads like this: (in Cc1ccccc1) 0.56; (in ClC(Cl)(Cl)Cl) 0.31; (in ClC(Cl)Cl) 0.49; (in ClCCl) 0.5; (in c1ccccc1) 0.55.
With `CCCCCCN1C(=O)c2cccc3cc(/N=C\c4c[nH]c5c4ccc4ccccc45)cc(c23)C1=O`, the photoluminescence quantum yield (in ClC(Cl)Cl) came to 0.073.
In the case of `CCCC1=Cc2nc1ccc1[nH]c(cc1CCC)c1nc(c(O)cc3[nH]c2cc3CCC)C(CCC)=C1`, for the setting “in Cc1ccccc1”, the photoluminescence quantum yield turned out to be 0.15.
For `CCC1=C(C)C(=O)n2c1cc1c(C)c(CC)c(C)n1c2=O`, the photoluminescence quantum yield (in CO) stood at 0.93, the photoluminescence quantum yield (in CS(C)=O) was 0.98, the photoluminescence quantum yield (in ClC(Cl)Cl) was found to be 1 and the photoluminescence quantum yield (in c1ccccc1) was 0.98.
Compound `CC(=O)OCCN1C(=O)c2cccc3c(Oc4ccc(C#N)cc4)ccc(c23)C1=O` displayed a photoluminescence quantum yield (in ClC(Cl)Cl) of 0.37.
For `CCCCN1C(=O)c2ccc3c4ccc5c6c(ccc(c7ccc(c2c37)C1=O)c64)C(=O)N(CCCC)C5=O`, the photoluminescence quantum yield (in ClC(Cl)Cl) was found to be 0.98.
In turn, `CC(C)C[Si](C#Cc1c2c(=O)c3ccccc3c2c(C#C[Si](CC(C)C)(CC(C)C)CC(C)C)c2c(=O)c3ccccc3c12)(CC(C)C)CC(C)C` came in with a photoluminescence quantum yield (in ClC(Cl)Cl) of 0.1.
Consider `O=C(c1ccc(C(=O)c2ccc(N3c4ccccc4Oc4ccccc43)cc2)cc1)c1ccc(N2c3ccccc3Oc3ccccc32)cc1`, for which the photoluminescence quantum yield by setting is: (in Cc1ccccc1) 0.1; (in c1cc(-c2cccc(-n3c4ccccc4c4ccccc43)c2)cc(-n2c3ccccc3c3ccccc32)c1) 0.36.
`CCn1ncc2c3c(C#N)c4c5ccccc5n(CC)c4nc3ccc21`: the photoluminescence quantum yield (in CCOC(C)=O) was 0.6.
Turning to `Fc1ccc(-c2cc3ccc4cc(-c5ccc(F)cc5)cc5ccc(c2)c3c45)cc1`, the photoluminescence quantum yield runs as follows: (in C1CCCCC1) 0.04; (in C1CCOC1) 0.07; (in CC#N) 0.08; (in CCCCCC) 0.02; (in CCO) 0.05; (in CN(C)C=O) 0.09. Further, the photoluminescence quantum yield (in CO) was 0.05, the photoluminescence quantum yield (in Cc1ccccc1) worked out at 0.07, the photoluminescence quantum yield (in ClC(Cl)Cl) was found to be 0.04 and the photoluminescence quantum yield (in ClCCl) came out at 0.05.
`COc1ccc(N(c2ccccc2)c2ccccc2)cc1` displayed a photoluminescence quantum yield (in Cc1ccccc1) of 0.03.
`N#Cc1ccc(/C2=C3N=C(C(c4ccccc4)=C/3c3ccccc3)/C(c3ccc(C#N)cc3)=c3\[nH]/c(c(-c4ccccc4)c3-c3ccccc3)=C(/c3ccc(C#N)cc3)C3=N/C(=C(/c4ccc(C#N)cc4)c4[nH]c2c(-c2ccccc2)c4-c2ccccc2)C(c2ccccc2)=C3c2ccccc2)cc1` had a photoluminescence quantum yield (in ClCCl) of 0.004.
As to `COc1ccc(C(=O)NN2C3=C(CC4=C2CCCC4=O)C(=O)CCC3)cc1`, the photoluminescence quantum yield is, setting by setting: (in CC#N) 0.59; (in CC(C)=O) 0.48; (in CCCCCO) 0.6; (in CO) 0.32; (in ClC(Cl)Cl) 0.57; (in ClCCl) 0.57.
In turn, `CCCCCCN1C(=O)c2cccc3c(-c4sc(-c5ccc6c7c(cccc57)C(=O)N(CCCCCC)C6=O)c5c4OCCO5)ccc(c23)C1=O` came in with a photoluminescence quantum yield (in ClC(Cl)Cl) of 0.22.
With `Clc1ccc(/C=C/c2ccncn2)cc1`, the photoluminescence quantum yield (in ClCCl) is 0.01.
Compound `CC[Si](C)(C)c1cc2ccc3cccc4ccc(c1C(=O)NC(C)(C)C)c2c34` came in with a photoluminescence quantum yield (in ClC(Cl)Cl) of 0.156.
As to `COc1cc2c(cc1-c1ccc(N(C)C)cc1)Cc1c3c(c4c(c1-2)-c1cc(OC)c(-c2ccc(N(C)C)cc2)cc1C4)C(=O)N(CCC(C)C)C3=O`, the photoluminescence quantum yield (in C1CCOC1) is 0.02.
On to `CC(C)C1=c2c(c3[nH]cc(C(C)C)c3c3ccccc23)=[N+]2C1=Cc1c(C(C)C)c3c4ccccc4c4c(C(C)C)c[nH]c4c3n1[B-]2(F)F`, for which, for the setting “in ClC(Cl)Cl”, the photoluminescence quantum yield came to 0.63.
Consider `CCCCCCN1C(=O)c2cccc3c(-c4ccc(OC)s4)ccc(c23)C1=O`, for which the photoluminescence quantum yield (in ClC(Cl)Cl) was 0.65.
The compound `COc1ccc(-c2nc3c([nH]2)=C2C=C(Cl)S[C@@]2(C)[C@]2(C)SC(Cl)=CC=32)cc1` returned a photoluminescence quantum yield (in CC#N) of 0.002.
For `COOCc1noc(-c2ccccc2)c1Cl`, the photoluminescence quantum yield (in C1CCCCC1) came to 0.006.
As to `CC1=CC(C)=[N+]2C1=C(c1c(-c3ccccn3)nc3ccccn13)c1c(C)cc(C)n1[B-]2(F)F`, for the setting “in ClCCl”, the photoluminescence quantum yield was 0.635.
Same read-out and setting: then `COc1ccc(-c2ncccn2)cc1`, with 0.01.
As to `CCCN1c2ccccc2Sc2cc(/C=C\c3cc(=O)oc4cc(O)ccc34)ccc21`, the photoluminescence quantum yield (in ClC(Cl)Cl) was found to be 0.74.
Regarding `O=P1(c2ccccc2)C(c2ccc(C(F)(F)F)cc2)=Cc2cc3ccccc3cc21` (centres undefined), under “in ClCCl”, the photoluminescence quantum yield came to 0.42.
Compound `c1ccc(-c2nc(-c3ccccc3)nc(-c3cc(-n4c5ccccc5c5ncccc54)c(-n4c5ccccc5c5ncccc54)c(-n4c5ccccc5c5ncccc54)c3)n2)cc1` registered a photoluminescence quantum yield (in O=P(c1ccccc1)(c1ccccc1)c1ccc2oc3ccc(P(=O)(c4ccccc4)c4ccccc4)cc3c2c1) of 0.54.
Regarding `CCOC(=O)c1c(NC(C)(C)C)oc(-c2ccc(-c3ccccc3)cc2)c1C(=O)OCC`, the photoluminescence quantum yield (in CC#N) came out at 0.235.
Where the note is “in ClCCl”, `O=c1cc(-c2nc3ccccn3c2NC2CCCCC2)occ1OCc1ccccc1` gave a photoluminescence quantum yield of 0.209.
With `CCc1c(C)[nH]c(C2=[N+]3C(=C(C)c4c(C)c(CC)c(C)n4[B-]3(F)F)c3ccccc32)c1C`, the photoluminescence quantum yield runs as follows: (in C1CCOC1) 0.27; (in CC#N) 0.21; (in CCCCCC) 0.93; (in CO) 0.21; (in Cc1ccccc1) 0.71; (in ClCCl) 0.72.
With `C(=C(c1ccccc1)c1ccccc1)c1ccc(-c2ccc(-c3nc4c5ccccc5c5ccccc5c4n3-c3cccc(-c4ccc(C=C(c5ccccc5)c5ccccc5)cc4)c3)cc2)cc1`, the photoluminescence quantum yield (in C1CCOC1) was determined as 0.145.
`COc1ccc(C2=[N+]3C(=Nc4c(C)cc(-c5ccc(OC)cc5)n4[B-]3(F)F)C(C)=C2)cc1` returned a photoluminescence quantum yield (in CS(C)=O) of 0.44.
Regarding `COc1ccc(C2=C/C(=C\c3ccc(C#N)cc3)C(=O)O2)cc1OC`, where the note is “in C1COCCO1”, the photoluminescence quantum yield was found to be 0.45.
`F[Si](c1ccccc1)(c1c2ccccc2cc2ccccc12)c1c2ccccc2cc2ccccc12` had a photoluminescence quantum yield (in C1CCOC1) of 0.17.
In the case of `Nc1ccc2[nH]ncc2c1`, the photoluminescence quantum yield amounted to 0.14 (in C1CCCCC1), 0.18 (in CC#N), 0.37 (in CO) and 0.57 (in O).
`CN1/C(=C/C=C/C2=[N+](CCCCCC(=O)O)c3ccc(S(=O)(=O)[O-])cc3C2(C)C)C(C)(C)c2cc(S(=O)(=O)[O-])ccc21`: the photoluminescence quantum yield (in O) came to 0.04.
Same read-out and setting: then `CC[N+]1(CC)CN2C(=N1)C(C(=O)O)=Cc1ccc(C)cc12`, with 0.617.
Where the note is “in ClCCl”, `CC(C)(C)c1cc(C#Cc2ccc3c(C#Cc4cc(C(C)(C)C)cc(C(C)(C)C)c4)cc4c5cc(C#Cc6cc(C(C)(C)C)cc(C(C)(C)C)c6)ccc5c(C#Cc5cc(C(C)(C)C)cc(C(C)(C)C)c5)cc4c3c2)cc(C(C)(C)C)c1` yielded a photoluminescence quantum yield of 0.626.
On to `C1=[N+](c2ccccc2)[B-](c2ccccc2)(c2ccccc2)Oc2c1ccc1c3c(ccc21)C=[N+](c1ccccc1)[B-](c1ccccc1)(c1ccccc1)O3`, for which the photoluminescence quantum yield stood at 0.7 (in Cc1ccccc1) and 0.76 (in ClCCl).
`c1ccc(C2=C(c3ccccc3)c3cccc4c3c(cc3nc5c(-c6ccccc6)ccc(-c6ccccc6)c5nc34)O2)cc1` returned a photoluminescence quantum yield (in ClCCl) of 0.23.
Regarding `O=C1[C@@H]2[C@H](C(=O)N1c1ccc3cc4ccccc4cc3c1)[C@@H]1C=C[C@H]2C1`, under “in ClC(Cl)Cl”, the photoluminescence quantum yield was 0.24.
